The target of this experiment is human PD-L1 (Homo sapiens (Human), UniProt Q9NZQ7). The experiment in a line: T cell activation luciferase reporter cell culture system (T Cell Activation Assay). Type of experiment: cell-based. Particulars: luciferase reporter assay; PD-L1 aAPC/CHO-K1 cells with PD-1 effector Jurkat T cells.
Chain of human PD-L1 (Q9NZQ7 19-290): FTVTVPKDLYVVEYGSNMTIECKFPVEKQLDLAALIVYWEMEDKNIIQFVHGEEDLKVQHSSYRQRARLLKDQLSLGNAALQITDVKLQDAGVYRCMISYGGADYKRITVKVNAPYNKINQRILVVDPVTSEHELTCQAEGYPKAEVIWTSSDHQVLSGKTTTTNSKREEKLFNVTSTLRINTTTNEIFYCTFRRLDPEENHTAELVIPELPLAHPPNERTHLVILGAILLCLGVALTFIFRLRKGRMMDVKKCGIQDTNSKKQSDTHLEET
Molecule `COc1nc(-c2ccnc(-c3cccc(NC(=O)c4cn(C)c(=O)n(C)c4=O)c3Cl)c2Cl)ccc1CN1CC2(CNC(=O)C2)C1` [Compound 719, N-(2-Chloro-3-(3′-chloro-6-methoxy-5-((7-oxo-2,6-diazaspiro[3.4]octan-2-yl)methyl)-[2,4′-bipyridin]-2′-yl)phenyl)-1,3-dimethyl-2,4-dioxo-1,2,3,4-tetrahydropyrimidine-5-carboxamide] displayed an EC50 of 0.42 µM. As for `COc1nc(-c2cncc(-c3cccc(NC(=O)c4cn(C)c(=O)n(C)c4=O)c3Cl)c2Cl)ccc1CN1CC2(CNC(=O)C2)C1` [Compound 722, N-(2-Chloro-3-(4′-chloro-6-methoxy-5-((7-oxo-2,6-diazaspiro[3.4]octan-2-yl)methyl)-[2,3′-bipyridin]-5′-yl)phenyl)-1,3-dimethyl-2,4-dioxo-1,2,3,4-tetrahydropyrimidine-5-carboxamide], the figure is 0.818 µM; as for `COc1nc(-c2cncc(-c3cccc(NC(=O)c4cn(C)c(=O)n(C)c4=O)c3Cl)c2Cl)ccc1CNC1CCN(C(C)=O)CC1` [Compound 723, N-(3-(5-(((1-Acetylpiperidin-4-yl)amino)methyl)-4′-chloro-6-methoxy-[2,3′-bipyridin]-5′-yl)-2-chlorophenyl)-1,3-dimethyl-2,4-dioxo-1,2,3,4-tetrahydropyrimidine-5-carboxamide], 1.85 µM. As for `COc1nc(-c2cncc(-c3cccc(NC(=O)c4cn(C)c(=O)n(C)c4=O)c3Cl)c2Cl)ccc1CNC[C@H](C)O` [Compound 729, (S)—N-(2-Chloro-3-(4′-chloro-5-(((2-hydroxypropyl)amino)methyl)-6-methoxy-[2,3′-bipyridin]-5′-yl)phenyl)-1,3-dimethyl-2,4-dioxo-1,2,3,4-tetrahydropyrimidine-5-carboxamide], the figure is 0.652 µM; as for `COc1nc(-c2cncc(-c3cccc(NC(=O)c4cn(C)c(=O)n(C)c4=O)c3Cl)c2Cl)ccc1CN1CC2(C1)CN(C(C)=O)C2` [Compound 730, N-(3-(5-((6-Acetyl-2,6-diazaspiro[3.3]heptan-2-yl)methyl)-4′-chloro-6-methoxy-[2,3′-bipyridin]-5′-yl)-2-chlorophenyl)-1,3-dimethyl-2,4-dioxo-1,2,3,4-tetrahydropyrimidine-5-carboxamide], 1.1 µM. In the case of `COc1nc(-c2cccc(-c3ccnc(-c4cc5c(=O)n(C)c(CN6CC(C)(O)C6)nn5c4)c3Cl)c2Cl)ccc1CN[C@H]1C[C@](C)(O)C1` [Example 232, 6-(3-Chloro-4-(2-chloro-3-(5-((((1r,3r)-3-hydroxy-3-methylcyclobutyl)amino)methyl)-6-methoxypyridin-2-yl)phenyl)pyridin-2-yl)-2-((3-hydroxy-3-methylazetidin-1-yl)methyl)-3-methylpyrrolo[2,1-f][1,2,4]triazin-4(3H)-one] it was 0.102 µM. `COc1nc(-c2cccc(-c3ccnc(-c4cc5c(=O)n(C)c(CN6CC(C)(O)C6)nn5c4)c3Cl)c2Cl)ccc1CNC(C)C` [Example 233, 6-(3-Chloro-4-(2-chloro-3-(5-((isopropylamino)methyl)-6-methoxypyridin-2-yl)phenyl)pyridin-2-yl)-2-((3-hydroxy-3-methylazetidin-1-yl)methyl)-3-methylpyrrolo[2,1-f][1,2,4]triazin-4(3H)-one] displayed an EC50 of at least 10 µM. The molecule `COc1nc(-c2cccc(-c3ccnc(-c4cc5c(=O)n(C)c(CN6CC(C)(O)C6)nn5c4)c3Cl)c2Cl)ccc1CN[C@H]1CC[C@H](O)CC1` [Example 234, 6-(3-Chloro-4-(2-chloro-3-(5-((((1r,4r)-4-hydroxycyclohexyl)amino)methyl)-6-methoxypyridin-2-yl)phenyl)pyridin-2-yl)-2-((3-hydroxy-3-methylazetidin-1-yl)methyl)-3-methylpyrrolo[2,1-f][1,2,4]triazin-4(3H)-one] came in with an EC50 of 0.143 µM. As for `COc1nc(-c2cccc(-c3ccnc(-c4ccc5c(CNC[C@@H]6CCO6)nn(C)c5c4)c3Cl)c2Cl)ccc1CNC[C@@H]1CCC(=O)N1` [Example 235, (S)-5-((((6-(2-Chloro-3-(3-chloro-2-(1-methyl-3-(((((S)-oxetan-2-yl)methyl)amino)methyl)-1H-indazol-6-yl)pyridin-4-yl)phenyl)-2-methoxypyridin-3-yl)methyl)amino)methyl)pyrrolidin-2-one], the figure is 0.0651 µM; as for `COc1cc(-c2nccc(-c3cccc(-c4ccc5c(OC)c(CNC[C@@H]6CCC(=O)N6)cc(Cl)c5n4)c3Cl)c2Cl)cc(F)c1CNC[C@@H]1CCC(=O)N1` [Example 236, (S)-5-((((8-Chloro-2-(2-chloro-3-(3-chloro-2-(3-fluoro-5-methoxy-4-(((((S)-5-oxopyrrolidin-2-yl)methyl)amino)methyl)phenyl)pyridin-4-yl)phenyl)-5-methoxyquinolin-6-yl)methyl)amino)methyl)pyrrolidin-2-one], 0.0539 µM; as for `COc1cc(-c2nccc(-c3cccc(-c4ccc(CNC[C@@H]5CCC(=O)N5)c(OC)n4)c3Cl)c2Cl)ccc1CNC1CC2(C1)CN(C(C)=O)C2` [Example 237, (S)-5-((((6-(3-(2-(4-(((2-acetyl-2-azaspiro[3.3]heptan-6-yl)amino)methyl)-3-methoxyphenyl)-3-chloropyridin-4-yl)-2-chlorophenyl)-2-methoxypyridin-3-yl)methyl)amino)methyl)pyrrolidin-2-one], 0.0221 µM. With `COc1cc(-c2nccc(-c3cccc(-c4ccc5c(OC)c(CNCCO)cc(Cl)c5n4)c3Cl)c2Cl)ccc1CNC[C@@H]1CCC(=O)N1` [Example 238, (S)-5-(((4-(3-chloro-4-(2-chloro-3-(8-chloro-6-(((2-hydroxyethyl)amino)methyl)-5-methoxyquinolin-2-yl)phenyl)pyridin-2-yl)-2-methoxybenzyl)amino)methyl)pyrrolidin-2-one], the half-maximal effective concentration (EC50) came to 0.128 µM.

`CNCc1ccc(-c2nccc(-c3cccc(-c4ccc(CNC5CCN(C(C)=O)CC5)c(OC)n4)c3Cl)c2Cl)cc1OC` [Example 240, 1-(4-(((6-(2-chloro-3-(3-chloro-2-(3-methoxy-4-((methylamino)methyl)phenyl)pyridin-4-yl)phenyl)-2-methoxypyridin-3-yl)methyl)amino)piperidin-1-yl)ethan-1-one]: the concentration giving a half-maximal response (EC50) came out at 0.0291 µM. `COc1cc(-c2cccc(-c3ccnc(-c4ccc5c(c4)CN(CCNC[C@@H]4CCC(=O)N4)C5=O)c3Cl)c2Cl)cc(F)c1CNC[C@@H]1CCC(=O)N1` [Example 242, 5-(3-Chloro-4-(2-chloro-3′-fluoro-5′-methoxy-4′-(((((S)-5-oxopyrrolidin-2-yl)methyl)amino)methyl)-[1,1′-biphenyl]-3-yl)pyridin-2-yl)-2-(2-((((S)-5-oxopyrrolidin-2-yl)methyl)amino)ethyl)isoindolin-1-one] came in with an EC50 of 0.437 µM. Consider `COc1cc(-c2nccc(-c3cccc(-c4ccc(CNC5CCN(C(C)=O)CC5)c(OC)n4)c3Cl)c2Cl)ccc1CN1CC2(CC(C(=O)O)C2)C1` [Example 243, 2-(4-(4-(3-(5-(((1-acetylpiperidin-4-yl)amino)methyl)-6-methoxypyridin-2-yl)-2-chlorophenyl)-3-chloropyridin-2-yl)-2-methoxybenzyl)-2-azaspiro[3.3]heptane-6-carboxylic acid], for which a half-maximal response (EC50) required 0.104 µM.

The values are drawn from patent US20240246964A1 (Arbutus Biopharma Corporation, priority 2021, published 2024).
